According to ChEMBL document CHEMBL5729561, “Compounds and uses thereof” (2023):

Assay: On day 0 cells were seeded in 30 μL media into each well of 384-well cell culture plates. The seeding density was 8000 cells/well. On day 1, cells were treated with 30 nL DMSO or 30 nL of 3-fold serially DMSO-diluted compounds (10 points in duplicates with 1 μM as final top dose). Subsequently plates were incubated for 6 hours in a standard tissue culture incubator and equilibrated at room temperature for 15 minutes. Nanoluciferase activity was measured by adding 15 μL of freshly prepared Nano-Glo Luciferase Assay Reagent (Promega N1130), shaking the plates for 10 minutes and reading the bioluminescence using an EnVision reader.
Assay type: cell-based

Structure (SMILES)	IC50
COc1cc(-c2cn(C)c(=O)c3cnccc23)cc(OC)c1CN(C)CCc1cn(CCOCCOc2ccc3c(c2)C(=O)N(C2CCC(=O)NC2=O)C3=O)nn1 (stereo not given)	in the range around 55 nM
COc1cc(-c2cn(C)c(=O)c3cnccc23)cc(OC)c1CN1CC(OCc2cn(-c3ccc4c(c3)C(=O)N(C3CCC(=O)NC3=O)C4=O)nn2)C1 (stereo not given)	in the range around 55 nM
COc1cc(-c2cn(C)c(=O)c3cnccc23)cc(OC)c1CN1CCC(OC2CCN(C(=O)CCOCCOc3ccc4c(c3)C(=O)N(C3CCC(=O)NC3=O)C4=O)CC2)CC1 (stereo not given)	< 10 nM
COc1cc(-c2cn(C)c(=O)c3cnccc23)cc(OC)c1CN1CCC(OCc2cn(CCCOc3ccc4c(c3)C(=O)N(C3CCC(=O)NC3=O)C4=O)nn2)C1 (stereo not given)	in the range around 550 nM
COc1cc(-c2cn(C)c(=O)c3cnccc23)cc(OC)c1CN(C)CCc1cn(CCCCCOc2ccc3c(c2)C(=O)N(C2CCC(=O)NC2=O)C3=O)nn1 (stereo not given)	< 10 nM
COc1cc(-c2cn(C)c(=O)c3cnccc23)cc(OC)c1CN1CCCC(OCc2cn(CCOc3ccc4c(c3)C(=O)N(C3CCC(=O)NC3=O)C4=O)nn2)C1 (stereo not given)	in the range around 55 nM
COc1cc(-c2cn(C)c(=O)c3cnccc23)cc(OC)c1CN(C)C1CC2CC1CN2C(=O)CCOCCOc1ccc2c(c1)C(=O)N(C1CCC(=O)NC1=O)C2=O (stereo not given)	< 10 nM
COc1cc(-c2cn(C)c(=O)c3cnccc23)cc(OC)c1CN1CCCC(OCc2cn(CCCCCOc3ccc4c(c3)C(=O)N(C3CCC(=O)NC3=O)C4=O)nn2)C1 (stereo not given)	< 10 nM
COc1cc(-c2cn(C)c(=O)c3cnccc23)cc(OC)c1CN1CCC(OCc2cn(CCOCCOc3ccc4c(c3)C(=O)N(C3CCC(=O)NC3=O)C4=O)nn2)C1 (stereo not given)	in the range around 55 nM
COc1cc(-c2cn(C)c(=O)c3cnccc23)cc(OC)c1CN(C)CC1CC2(CCN(C(=O)CCOCCOc3ccc4c(c3)C(=O)N(C3CCC(=O)NC3=O)C4=O)CC2)O1 (stereo not given)	< 10 nM
COc1cc(-c2cn(C)c(=O)c3cnccc23)cc(OC)c1CN1CCC(OCc2cn(CCCCOc3ccc4c(c3)C(=O)N(C3CCC(=O)NC3=O)C4=O)nn2)C1 (stereo not given)	in the range around 55 nM
COc1cc(-c2cn(C)c(=O)c3cnccc23)cc(OC)c1CN1CCC(OCc2cn(CCCCOc3ccc4c(c3)C(=O)N(C3CCC(=O)NC3=O)C4=O)nn2)CC1 (stereo not given)	in the range around 55 nM
COc1cc(-c2cn(C)c(=O)c3cnccc23)cc(OC)c1CN(C)Cc1cn(CCOCCOc2ccc3c(c2)C(=O)N(C2CCC(=O)NC2=O)C3=O)nn1 (stereo not given)	in the range around 550 nM
COc1cc(-c2cn(C)c(=O)c3cnccc23)cc(OC)c1CN1CCC(OCc2cn(-c3ccc4c(c3)C(=O)N(C3CCC(=O)NC3=O)C4=O)nn2)C1 (stereo not given)	in the range around 55 nM
COc1cc(-c2cn(C)c(=O)c3cnccc23)cc(OC)c1CN1CC(OCc2cn(CCOCCOc3ccc4c(c3)C(=O)N(C3CCC(=O)NC3=O)C4=O)nn2)C1 (stereo not given)	in the range around 550 nM
COc1cc(-c2cn(C)c(=O)c3cnccc23)cc(OC)c1CN(C)C1CC2CN(C(=O)CCOCCOc3cccc4c3C(=O)N(C3CCC(=O)NC3=O)C4=O)CC2C1 (stereo not given)	in the range around 55 nM
COc1cc(-c2cn(C)c(=O)c3cnccc23)cc(OC)c1CN1CCCC(OCc2cn(-c3ccc4c(c3)C(=O)N(C3CCC(=O)NC3=O)C4=O)nn2)C1 (stereo not given)	in the range around 550 nM
COc1cc(-c2cn(C)c(=O)c3cnccc23)cc(OC)c1CN(C)CC1CC2(CCN(C(=O)CCOCCOc3cccc4c3C(=O)N(C3CCC(=O)NC3=O)C4=O)CC2)O1 (stereo not given)	in the range around 55 nM
COc1cc(-c2cn(C)c(=O)c3cnccc23)cc(OC)c1CN1CCC(OCc2cn(CCOCCOc3ccc4c(c3)C(=O)N(C3CCC(=O)NC3=O)C4=O)nn2)CC1 (stereo not given)	in the range around 55 nM
COc1cc(-c2cn(C)c(=O)c3cnccc23)cc(OC)c1CN1CCC2(C[C@@H]2NC(=O)CCOCCOc2ccc3c(c2)C(=O)N(C2CCC(=O)NC2=O)C3=O)C1 (stereo not given in full)	in the range around 55 nM
COc1cc(-c2cn(C)c(=O)c3cnccc23)cc(OC)c1CN1CCC(OC2CCN(C(=O)CCOCCOc3ccc4c(c3)C(=O)N(C3CCC(=O)NC3=O)C4=O)C2)CC1 (stereo not given)	< 10 nM
COc1cc(-c2cn(C)c(=O)c3cnccc23)cc(OC)c1CN1CC(OCc2cn(CCCCCOc3ccc4c(c3)C(=O)N(C3CCC(=O)NC3=O)C4=O)nn2)C1 (stereo not given)	in the range around 55 nM
COc1cc(-c2cn(C)c(=O)c3cnccc23)cc(OC)c1CN1CCC(C2CCN(C(=O)CCOCCOc3ccc4c(c3)C(=O)N(C3CCC(=O)NC3=O)C4=O)C2)CC1 (stereo not given)	< 10 nM
COc1cc(-c2cn(C)c(=O)c3cnccc23)cc(OC)c1CN(C)CC1CC2(C1)CN(C(=O)CCOCCOc1cccc3c1C(=O)N(C1CCC(=O)NC1=O)C3=O)C2 (stereo not given)	in the range around 55 nM
COc1cc(-c2cn(C)c(=O)c3cnccc23)cc(OC)c1CN(C)CC1CC12CCN(C(=O)CCOCCOc1ccc3c(c1)C(=O)N(C1CCC(=O)NC1=O)C3=O)CC2 (stereo not given)	in the range around 55 nM

Structure (SMILES)	IC50
COc1cc(-c2cn(C)c(=O)c3cnccc23)cc(OC)c1CN1CCC(OCc2cn(CCCCCOc3ccc4c(c3)C(=O)N(C3CCC(=O)NC3=O)C4=O)nn2)CC1 (stereo not given)	< 10 nM
COc1cc(-c2cn(C)c(=O)c3cnccc23)cc(OC)c1CN(C)CCc1cn(-c2ccc3c(c2)C(=O)N(C2CCC(=O)NC2=O)C3=O)nn1 (stereo not given)	in the range around 55 nM
COc1cc(-c2cn(C)c(=O)c3cnccc23)cc(OC)c1CN1CCC12CCN(C(=O)CCOCCOc1ccc3c(c1)C(=O)N(C1CCC(=O)NC1=O)C3=O)C2 (stereo not given)	in the range around 550 nM
COc1cc(-c2cn(C)c(=O)c3cnccc23)cc(OC)c1CN1CCC(OCc2cn(CCOc3ccc4c(c3)C(=O)N(C3CCC(=O)NC3=O)C4=O)nn2)C1 (stereo not given)	in the range around 55 nM
COc1cc(-c2cn(C)c(=O)c3cnccc23)cc(OC)c1CN1CC(OCc2cn(CCCCOc3ccc4c(c3)C(=O)N(C3CCC(=O)NC3=O)C4=O)nn2)C1 (stereo not given)	in the range around 55 nM
COc1cc(-c2cn(C)c(=O)c3cnccc23)cc(OC)c1CN1CCC(OCc2cn(-c3ccc4c(c3)C(=O)N(C3CCC(=O)NC3=O)C4=O)nn2)CC1 (stereo not given)	in the range around 55 nM
COc1cc(-c2cn(C)c(=O)c3cnccc23)cc(OC)c1CN(C)CC1CC2(CCN(C(=O)CCOCCOc3ccc4c(c3)C(=O)N(C3CCC(=O)NC3=O)C4=O)CC2)C1 (stereo not given)	in the range around 55 nM
COc1cc(-c2cn(C)c(=O)c3cnccc23)cc(OC)c1CN(C)C1CC2CN(C(=O)CCOCCOc3ccc4c(c3)C(=O)N(C3CCC(=O)NC3=O)C4=O)CC2C1 (stereo not given)	in the range around 55 nM
COc1cc(-c2cn(C)c(=O)c3cnccc23)cc(OC)c1CN(C)C1CC2CC1CN2C(=O)CCOCCOc1cccc2c1C(=O)N(C1CCC(=O)NC1=O)C2=O (stereo not given)	in the range around 55 nM
COc1cc(-c2cn(C)c(=O)c3cnccc23)cc(OC)c1CN1CCC(OCc2cn(CCOCc3ccc4c(c3)C(=O)N(C3CCC(=O)NC3=O)C4=O)nn2)CC1 (stereo not given)	in the range around 55 nM
COc1cc(-c2cn(C)c(=O)c3cnccc23)cc(OC)c1CN1CCCC(OCc2cn(CCOCCOc3ccc4c(c3)C(=O)N(C3CCC(=O)NC3=O)C4=O)nn2)C1 (stereo not given)	in the range around 55 nM
COc1cc(-c2cn(C)c(=O)c3cnccc23)cc(OC)c1CN(C)CC1CC2(CCN(C(=O)CCOCCOc3ccc4c(c3)C(=O)N(C3CCC(=O)NC3=O)C4=O)CC2)CO1 (stereo not given)	< 10 nM
COc1cc(-c2cn(C)c(=O)c3cnccc23)cc(OC)c1CN(C)C1CCC2CN(C(=O)CCOCCOc3ccc4c(c3)C(=O)N(C3CCC(=O)NC3=O)C4=O)CC21 (stereo not given)	< 10 nM
COc1cc(-c2cn(C)c(=O)c3cnccc23)cc(OC)c1CN(C)Cc1cn(CCCCCOc2ccc3c(c2)C(=O)N(C2CCC(=O)NC2=O)C3=O)nn1 (stereo not given)	in the range around 55 nM
COc1cc(-c2cn(C)c(=O)c3cnccc23)cc(OC)c1CN1CCCC(OCc2cn(CCCOc3ccc4c(c3)C(=O)N(C3CCC(=O)NC3=O)C4=O)nn2)C1 (stereo not given)	in the range around 55 nM
COc1cc(-c2cn(C)c(=O)c3cnccc23)cc(OC)c1CN(C)CC1CC12CCN(C(=O)CCOCCOc1cccc3c1C(=O)N(C1CCC(=O)NC1=O)C3=O)CC2 (stereo not given)	in the range around 55 nM
COc1cc(-c2cn(C)c(=O)c3cnccc23)cc(OC)c1CN(C)C1CCC12CCN(C(=O)CCOCCOc1ccc3c(c1)C(=O)N(C1CCC(=O)NC1=O)C3=O)CC2 (stereo not given)	< 10 nM
COc1cc(-c2cn(C)c(=O)c3cnccc23)cc(OC)c1CN1CCC2(C[C@H]2NC(=O)CCOCCOc2ccc3c(c2)C(=O)N(C2CCC(=O)NC2=O)C3=O)C1 (stereo not given in full)	in the range around 550 nM
COc1cc(-c2cn(C)c(=O)c3cnccc23)cc(OC)c1CN1CCC(OCc2cn(CCOc3ccc4c(c3)C(=O)N(C3CCC(=O)NC3=O)C4=O)nn2)CC1 (stereo not given)	in the range around 55 nM
COc1cc(-c2cn(C)c(=O)c3cnccc23)cc(OC)c1CN1CC(OCc2cn(CCCOc3ccc4c(c3)C(=O)N(C3CCC(=O)NC3=O)C4=O)nn2)C1 (stereo not given)	in the range around 550 nM
COc1cc(-c2cn(C)c(=O)c3cnccc23)cc(OC)c1CN(C)CC1CC2(CCN(C(=O)CCOCCOc3cccc4c3C(=O)N(C3CCC(=O)NC3=O)C4=O)CC2)C1 (stereo not given)	in the range around 55 nM
COc1cc(-c2cn(C)c(=O)c3cnccc23)cc(OC)c1CN1CC2C1CCN2C(=O)CCOCCOc1ccc2c(c1)C(=O)N(C1CCC(=O)NC1=O)C2=O (stereo not given)	< 10 nM
COc1cc(-c2cn(C)c(=O)c3cnccc23)cc(OC)c1CN1CCC(OCc2cn(CCCCCOc3ccc4c(c3)C(=O)N(C3CCC(=O)NC3=O)C4=O)nn2)C1 (stereo not given)	< 10 nM
COc1cc(-c2cn(C)c(=O)c3cnccc23)cc(OC)c1CN(C)C1CCC2CN(C(=O)CCOCCOc3cccc4c3C(=O)N(C3CCC(=O)NC3=O)C4=O)CC21 (stereo not given)	in the range around 55 nM
COc1cc(-c2cn(C)c(=O)c3cnccc23)cc(OC)c1CN(C)CC1CC2(C1)CN(C(=O)CCOCCOc1ccc3c(c1)C(=O)N(C1CCC(=O)NC1=O)C3=O)C2 (stereo not given)	in the range around 550 nM
